These are literature values, as cited in patent US20040204467A1, “Use of 5HT3-receptor-antagonists” (priority 1998, published 2004).

SMILES strings stand for the structures.

In data set [1] the test system is patients with CFS. The following applies: after an acute application on patients with CFS.
Data set [2] has as its system CFS patients. The following applies: daily dose of 20 mg; also in patients with accompanying symptoms of depression.

`CCN[C@@H](C)Cc1cccc(C(F)(F)F)c1` [D-Feufluoroamin]: in data set [1], the “rise of prolactin in the serum” value is recorded as “significantly increased rise of prolactin”.
Take `CNCCC(Oc1ccc(C(F)(F)F)cc1)c1ccccc1` (centres unmarked) [fluoxetin]: in data set [2], the “result of treatment of CFS” value is “negative in result”.
